In patent US9156827B2, “Anticancer agent” (THE UNIVERSITY OF TOKYO, priority 2010, dated 2015):
Counter-ions that a name gives are not always drawn.

Tests used:
pim-1 kinase = pim-1 kinase (Homo sapiens, UniProt P11309); assay: Measurement of pim-1 kinase inhibitory activity (fluorescent substrate peptide, capillary electrophoresis); format: biochemical; settings: 0.1 μM of each compound, 30 μM ATP, 1.5 μM substrate peptide, room temperature 2 hours
Experimental: Measurement of Pim-1 Kinase Inhibitory Activity
The result of the reaction was determined by quantifying the substrate and the phosphorylated reaction product separated by capillary electrophoresis based on difference in charges of the substances (EZ Reader II, Caliper Life Sciences, was used).

[1] = system: human acute myeloid leukemia MV4.11 cells; assay: Cell proliferation-suppressing activity, fluorescence method (Alamar Blue assay); format: cell-based; settings: 48 h, compound 1 μM, Alamar Blue assay two days after inoculation, Table 5
Experimental: Measurement of Cell Proliferation-Suppressing Activity (Fluorescence Method)
Each compound was added to a 96-well microtiter plate at a final concentration of 1 μM, then human acute myeloid leukemia MV4.11 cells (10^4 cells) were inoculated, and the Alamar Blue assay was performed two days after the inoculation (measurement of fluorescence: Ex. 535 nm, Em. 590 nm) to measure cell proliferation-suppressing activity.

[2] = system: Human acute myeloid leukemia MV4-11 cells; assay: Cell proliferation-suppressing activity, chromogenic method (MTT assay); format: cell-based; settings: 72 h, compound 1 μM, MTT assay three days after addition
Experimental: Measurement of Cell Proliferation-Suppressing Activity (Chromogenic Method)
Human acute myeloid leukemia MV4-11 cells (10^4 cells) were inoculated on a 96-well microtiter plate, each compound was added at a final concentration of 1 μM 24 hours afterward, and MTT assay was performed three days after the addition of the compound to measure the cell proliferation-suppressing activity.

Chain of pim-1 kinase (P11309 whole entry): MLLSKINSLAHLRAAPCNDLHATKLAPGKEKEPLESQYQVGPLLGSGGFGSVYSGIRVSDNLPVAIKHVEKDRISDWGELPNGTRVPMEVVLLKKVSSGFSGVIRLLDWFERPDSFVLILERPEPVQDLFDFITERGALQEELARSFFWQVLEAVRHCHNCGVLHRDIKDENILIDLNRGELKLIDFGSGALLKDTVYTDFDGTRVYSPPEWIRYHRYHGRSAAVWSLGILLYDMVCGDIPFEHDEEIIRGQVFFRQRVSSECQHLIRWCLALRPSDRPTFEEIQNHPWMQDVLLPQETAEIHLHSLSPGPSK

O=C1/C(=C/c2cn(S(=O)(=O)c3cccc(Cl)c3Cl)c3ccccc23)Oc2c1ccc(O)c2CN1CCNCC1 [Compound A38, (Z)-2-{[1-(2,3-Dichlorophenylsulfonyl)-1H-indol-3-yl]methylene}-6-hydroxy-7-(piperazin-1-ylmethyl)benzofuran-3(2H)-one dihydrochloride]
inhibition at 0.1 µM (pim-1 kinase; Table 1): 99% | inhibition at 1 µM [1]: 43%

O=C1/C(=C/c2cn(S(=O)(=O)c3ccccc3Cl)c3ccccc23)Oc2c1ccc(O)c2CN1CCNCC1 [Compound A36, (Z)-2-{[1-(2-Chlorophenylsulfonyl)-1H-indol-3-yl]methylene}-6-hydroxy-7-(piperazin-1-ylmethyl)benzofuran-3(2H)-one dihydrochloride]
inhibition at 0.1 µM (pim-1 kinase; Table 1): 99% | inhibition at 1 µM [1]: 39%

O=C1/C(=C/c2cn(S(=O)(=O)c3c(Cl)cccc3Cl)c3ccccc23)Oc2c1ccc(O)c2CN1CCNCC1 [Compound A37, (Z)-2-{[1-(2,6-Dichlorophenylsulfonyl)-1H-indol-3-yl]methylene}-6-hydroxy-7-(piperazin-1-ylmethyl)benzofuran-3(2H)-one dihydrochloride]
inhibition at 0.1 µM (pim-1 kinase; Table 1): 99% | inhibition at 1 µM [1]: 55%

Cc1ccc2[nH]cc(/C=C3\Oc4c(ccc(O)c4CN4CCNCC4)C3=O)c2c1 [Compound A18, (Z)-6-Hydroxy-2-[(5-methyl-1H-indol-3-yl)methylene]-7-(piperazin-1-ylmethyl)benzofuran-3(2H)-one dihydrochloride]
inhibition at 0.1 µM (pim-1 kinase; Table 1): 95% | inhibition at 1 µM [1]: 71%

O=C1/C(=C/c2c[nH]c3ccccc23)Oc2c1cc(Cl)c(O)c2CN1CCNCC1 [Compound A12, (Z)-2-[(1H-Indol-3-yl)methylene]-5-chloro-6-hydroxy-7-(piperazin-1-ylmethyl)benzofuran-3(2H)-one dihydrochloride]
inhibition at 0.1 µM (pim-1 kinase; Table 1): 81% | inhibition at 1 µM [1]: 87%

COc1ccc2c(c1CN1CCNCC1)O/C(=C\c1n[nH]c3ccc(Cl)cc13)C2=O [Compound B18, (Z)-2-[(5-Chloro-1H-indazol-3-yl)methylene]-6-methoxy-7-(piperazin-1-ylmethyl)benzofuran-3(2H)-one]
inhibition at 0.1 µM (pim-1 kinase; Table 2): 95% | inhibition at 1 µM ([2]; Table 4): 87%

O=C1CN(Cc2c(O)ccc3c2O/C(=C\c2c[nH]c4ncccc24)C3=O)CCN1 [Compound A45, (Z)-4-({2-[(1H-Pyrrolo[2,3-b]pyridin-3-yl)methylene]-6-hydroxy-3-oxo-2,3-dihydrobenzofuran-7-yl}methyl)piperazin-2-one]
inhibition at 0.1 µM (pim-1 kinase; Table 1): 83% | inhibition at 1 µM [1]: 15%

O=C1/C(=C/c2n[nH]c3ccccc23)Oc2c1ccc(OCCOc1ccccc1)c2CN1CCNCC1 [Compound B31, (Z)-2-((1H-Indazol-3-yl)methylene)-6-(2-phenoxyethoxy)-7-(piperazin-1-ylmethyl)benzofuran-3(2H)-one]
inhibition at 0.1 µM (pim-1 kinase; Table 2): 95% | inhibition at 1 µM ([2]; Table 4): 84%

O=C1/C(=C/c2cn(S(=O)(=O)c3ccc(Cl)cc3Cl)c3ccccc23)Oc2c1ccc(O)c2CN1CCNCC1 [Compound A39, (Z)-2-{[1-(2,4-Dichlorophenylsulfonyl)-1H-indol-3-yl]methylene}-6-hydroxy-7-(piperazin-1-ylmethyl)benzofuran-3(2H)-one dihydrochloride]
inhibition at 0.1 µM (pim-1 kinase; Table 1): 99% | inhibition at 1 µM [1]: 51%

CN(C)C1CCN(Cc2c(O)ccc3c2O/C(=C\c2c[nH]c4ccccc24)C3=O)C1 (centres unmarked) [Compound A3, (Z)-2-[(1H-Indol-3-yl)methylene]-7-{[3-(dimethylamino)pyrrolidin-1-yl]methyl}-6-hydroxybenzofuran-3(2H)-one]
inhibition at 0.1 µM (pim-1 kinase; Table 1): 47% | inhibition at 1 µM ([2]; Table 3): 41%

Cc1ccc(S(=O)(=O)n2cc(/C=C3\Oc4c(ccc(O)c4CN4CCNCC4)C3=O)c3ccccc32)cc1 [Compound A33, (Z)-6-Hydroxy-7-(piperazin-1-ylmethyl)-2-[(1-tosyl-1H-indol-3-yl)methylene]benzofuran-3(2H)-one dihydrochloride]
inhibition at 0.1 µM (pim-1 kinase; Table 1): 94% | inhibition at 1 µM [1]: 32%

O=C1/C(=C/c2cn(S(=O)(=O)c3ccc(C(F)(F)F)cc3)c3ccccc23)Oc2c1ccc(O)c2CN1CCNCC1 [Compound A34, (Z)-6-Hydroxy-7-(piperazin-1-ylmethyl)-2-({1-[4-(trifluoromethyl)phenylsulfonyl]-1H-indol-3-yl}methylene)benzofuran-3(2H)-one dihydrochloride]
inhibition at 0.1 µM (pim-1 kinase; Table 1): 98% | inhibition at 1 µM [1]: 58%

CC(c1c(O)ccc2c1O/C(=C\c1n[nH]c3ccccc13)C2=O)N1CCNCC1 (centres unmarked) [Compound B7, (Z)-2-[(1H-Indazol-3-yl)methylene]-6-hydroxy-7-[1-(piperazin-1-yl)ethyl]benzofuran-3(2H)-one]
inhibition at 0.1 µM (pim-1 kinase; Table 2): 86% | inhibition at 1 µM ([2]; Table 4): 88%

COc1ccc2c(c1CN1CCNCC1)O/C(=C\c1n[nH]c3ccccc13)C2=O [Compound B17, (Z)-2-[(1H-Indazol-3-yl)methylene]-6-methoxy-7-(piperazin-1-ylmethyl)benzofuran-3(2H)-one]
inhibition at 0.1 µM (pim-1 kinase; Table 2): 100% | inhibition at 1 µM ([2]; Table 4): 93%

Nc1ccc2c(/C=C3\Oc4c(ccc(O)c4CN4CCNCC4)C3=O)c[nH]c2c1 [Compound A25, (Z)-2-[(6-Amino-1H-indol-3-yl)methylene]-6-hydroxy-7-(piperazin-1-ylmethyl)benzofuran-3(2H)-one trihydrochloride]
inhibition at 0.1 µM (pim-1 kinase; Table 1): 83% | inhibition at 1 µM [1]: 20%

COc1ccc2c(c1C(=O)N1CCNCC1)O/C(=C\c1n[nH]c3ccccc13)C2=O [Compound B37, (Z)-2-[(1H-Indazol-3-yl)methylene]-6-methoxy-7-(piperazine-1-carbonyl)benzofuran-3(2H)-one]
inhibition at 0.1 µM (pim-1 kinase; Table 2): 85% | inhibition at 1 µM ([2]; Table 4): 76%

O=C1/C(=C/c2n[nH]c3ccccc23)Oc2c1ccc(OCCc1ccccc1)c2CN1CCNCC1 [Compound B30, (Z)-2-[(1H-Indazol-3-yl)methylene]-6-phenethoxy-7-(piperazin-1-ylmethyl)benzofuran-3(2H)-one]
inhibition at 0.1 µM (pim-1 kinase; Table 2): 89% | inhibition at 1 µM ([2]; Table 4): 78%

CCCCOc1ccc2c(c1CN1CCNCC1)O/C(=C\c1n[nH]c3ccccc13)C2=O [Compound B24, (Z)-2-[(1H-Indazol-3-yl)methylene]-6-butoxy-7-(piperazin-1-ylmethyl)benzofuran-3(2H)-one]
inhibition at 0.1 µM (pim-1 kinase; Table 2): 88% | inhibition at 1 µM ([2]; Table 4): 89%

O=C1/C(=C/c2cn(S(=O)(=O)c3ccc(Cl)cc3)c3ccccc23)Oc2c1ccc(O)c2CN1CCNCC1 [Compound A35, (Z)-{[1-(4-Chlorophenylsulfonyl)-1H-indol-3-yl]methylene}-6-hydroxy-7-(piperazin-1-ylmethyl)benzofuran-3(2H)-one dihydrochloride]
inhibition at 0.1 µM (pim-1 kinase; Table 1): 96% | inhibition at 1 µM [1]: 48%

CC(C)Oc1ccc2c(c1CN1CCNCC1)O/C(=C\c1n[nH]c3ccccc13)C2=O [Compound B25, (Z)-2-[(1H-Indazol-3-yl)methylene]-6-isopropoxy-7-(piperazin-1-ylmethyl)benzofuran-3(2H)-one]
inhibition at 0.1 µM (pim-1 kinase; Table 2): 97% | inhibition at 1 µM ([2]; Table 4): 91%

O=C1/C(=C/c2c[nH]c3ncccc23)Oc2c1ccc(O)c2CN1CCOCC1 [Compound A44, (Z)-2-[(1H-Pyrrolo[2,3-b]pyridin-3-yl)methylene]-6-hydroxy-7-(morpholinomethyl)benzofuran-3(2H)-one]
inhibition at 0.1 µM (pim-1 kinase; Table 1): 27% | inhibition at 1 µM [1]: 46%

O=C1/C(=C/c2n[nH]c3ccccc23)Oc2c1ccc(OC1CCOCC1)c2CN1CCNCC1 [Compound B29, (Z)-2-[(1H-Indazol-3-yl)methylene]-7-(piperazin-1-ylmethyl)-6-(tetrahydro-2H-pyran-4-yloxy)benzofuran-3(2H)-one]
inhibition at 0.1 µM (pim-1 kinase; Table 2): 82% | inhibition at 1 µM ([2]; Table 4): 90%
